Results as given in a melting point compilation (Tetko et al.; mined from patent text by program, amines drawn as free bases though some values may be those of a salt).

Row | melting point | SMILES
1 | 102 to 104 °C | CN1CC(CCCl)Oc2ccc(Cl)cc2C1=S (configuration not stated)
2 | 62 to 64 °C | CC(=O)c1nn2c3c(cccc13)CCC2
3 | 91 to 92 °C | COC(=O)c1ccc(N2CCNCC2)nc1
4 | 279 °C | O=C(Nc1nnn[nH]1)c1cccc([N+](=O)[O-])c1Cl
5 | 173 to 175 °C | COc1ccnc(C(C)Sc2nc3cc4c(cc3[nH]2)OC(F)(F)O4)c1 (configuration not stated)
6 | 241 to 242 °C | N#Cc1c(N2CCCCC2)[nH]c2cccnc12
7 | 182 to 184 °C | COc1ccc2c(c1)CCC1CCNC(=O)C(CSC)=C21 (configuration not stated)
8 | 79 to 80 °C | CCN1c2ncc(CCc3cccnc3)cc2C(=O)N(C)c2cccnc21
9 | 183 to 185 °C | NC(=O)NC1CCN(Cc2ccc3ccccc3c2)CC1
10 | 118 to 120 °C | CN(O)C(=O)Cc1ccc2c(c1)C(=O)c1ccccc1CO2
11 | 149 to 150 °C | COc1ccc(Nc2ccc3c(n2)CC(C)(C)CC3=O)cc1
12 | 107 to 108 °C | CN(O)CCCCc1ccc2c(c1)C(=O)c1sccc1CO2
13 | 221 °C | Cc1cc(Cl)cc(C(=O)Nc2ccnc(Cl)c2)n1
14 | 166 to 167 °C | COC(=O)C1C(=O)N(C)C(=O)c2ccc(Cl)cc21 (configuration not stated)
15 | 230 to 231 °C | CCCn1c(=O)[nH]c(Cl)c(-c2ccccc2)c1=O
16 | 120 to 121 °C | C=Cc1ccc(NC(=O)OCC2(C)COC(=O)OC2)cc1
17 | 181 to 182 °C | O=C1c2c(O)cccc2C(c2cccs2)c2cccc(O)c21

Row | melting point | SMILES
18 | 229 °C | c1ccc2c(c1)CCc1c-2n[nH]c1-c1ccncc1
19 | 210 to 212 °C | Nc1c2c(nc3ccccc13)CCS2
20 | 162 °C | Fc1ccc(-c2ccc(-c3cc(N4CCNCC4)nnc3C(F)(F)F)cc2)cc1
21 | 118 to 119 °C | O=[N+]([O-])c1cnc2ccccc2c1Cl
22 | > 260 °C | COc1cccc2c3c([nH]c12)C(=O)N=NC3=O
23 | 212 to 213 °C | CN1CCC(c2c(O)cc(O)c3c(=O)cc(-c4ccccc4O)oc23)C1CO (configuration not stated)
24 | 183 to 185 °C | CC(c1ccc2[nH]nc(S(=O)(=O)c3cccc4ccccc34)c2c1)N1CCN(C)CC1 (configuration not stated)
25 | 115 to 116 °C | CC(C)Oc1ccc(C2Cc3ccccc3C(=O)N2C)cc1 (configuration not stated)
26 | 107 °C | CC(C)S(=O)(=O)c1ccc2c(c1)nc(CC1CC1)n2CC1CC1
27 | 138 to 139 °C | S=C1NCCSc2ccsc21
28 | 198 to 200 °C | Cc1c(C)c2ccc(OCCCN3CCC(=NO)CC3)cc2oc1=O
29 | 110 to 117 °C | Cc1noc(C)c1-c1ccccc1OC1SCC(O)C(O)C1O (configuration not stated)
30 | 156 to 158 °C | O=S1(=O)NCN(CCF)c2ccc(I)cc21
31 | 175 to 177 °C | NC(=S)Nc1ccccc1-c1ccc(Cl)cc1
32 | 179 to 181 °C | O=S(=O)(c1ccc(Cl)cc1)N1CCC2(C=Cc3ccccc32)CC1
33 | 209 to 210 °C | O=C1Cc2cccc(C(=O)c3ccccc3F)c2N1

More lines, now with the values behind:

Row | SMILES | melting point
34 | Cc1c(C#N)sc(N=Nc2c(NCCO)nc(NCCO)c(C#N)c2C)c1C#N | 268 to 269 °C
35 | O=S(=O)(c1ccccc1)n1c2ccc(C=Cc3ccccc3)cc2c2cc(Cl)cnc21 | 190 to 192 °C
36 | Cc1oc(-c2ccco2)nc1CCc1ccc(CCCCC2OC(=O)NC2=O)cc1 (configuration not stated) | 140 to 141 °C
37 | Nc1nnc(-c2ccc(C(F)(F)F)cc2)cc1C(F)(F)F | 186 to 190 °C
38 | Cc1nc(Cl)c2c(n1)c(C)nn2C | 91 to 93 °C
39 | C=CCSCCON=C(C(=O)O)c1csc(NC=O)n1 | 70 to 78 °C
40 | COc1ccc(F)cc1C(=O)NC1Cc2cc(S(=O)(=O)NC(=S)NC(C)C)c(OC)cc2OC1(C)C (configuration not stated) | 156 to 157 °C
41 | CCOC(=O)c1cc2ccccc2n1Cc1ccc(Cl)cc1 | 107 to 108 °C
42 | c1cncc(CNC2=Nc3ccccc3Nc3ncccc32)c1 | 192 to 194 °C
43 | CCCCCCCCCC[C@@]1(C)OO[C@@H]2C[C@H]1CC(=O)[C@@H]2C | 40 °C
44 | O=C(c1ccc(Cl)cc1)c1ccc2c(c1)Cc1ccccc1-2 | 183 °C
45 | Cn1c(=O)c2[nH]cnc2n(CCCC(=O)O)c1=O | 220 to 221 °C
46 | COc1ccc(CNS(=O)(=O)Cc2ccc3[nH]cc(CCN(C)C)c3c2)cc1 | 200 to 201 °C
47 | CCCCNc1cc(-c2ccccc2)nc2onc(C)c12 | 126 to 127 °C
48 | Oc1ccc2c(c1)OC(CNCCCc1c[nH]c3ccc(O)cc13)CO2 (configuration not stated) | 140 to 144 °C
49 | Cc1cccc(-c2nc(C)cc(-c3ccccc3Cl)n2)n1 | 90.8 °C
50 | CCc1cnc(C2=NC(C)(C(C)C)C(=O)N2)c(C(=O)NCCCC(=O)O)c1 (configuration not stated) | 165 to 167 °C
51 | O=C1CCC(c2ccc(OCCCN3C(=O)c4ccccc4C3=O)c(Cl)c2)=NN1 | 230 to 232 °C
52 | O=C(c1ccccc1)c1ccc([N+](=O)[O-])c(CO)c1 | 71.3 °C
53 | Cc1cccc(Br)c1-c1c(C)cccc1Br | 90 to 92.3 °C
54 | COC(=O)C(c1ccccc1)C1CCN(c2ccc(N)cc2)CC1 (configuration not stated) | 125 °C
55 | Cn1ncc(N)c1C(N)=O | 158 to 160 °C
56 | O=C(O)c1ccc(Cl)cc1Cc1ccccc1 | 142 to 144 °C

Row | SMILES | melting point
57 | COC(=O)c1cccc(C(=O)CC(=O)c2ccccc2)c1 | 106 to 108 °C
58 | CCNc1cccc(C#CCCn2nc3ccccc3n2)n1 | 73 to 78 °C
59 | Cc1nc(-n2ccn(CCc3ccc(F)cc3)c2=O)sc1C(=O)NCc1cccnc1 | 160 to 162 °C
60 | COc1ccc(C(=O)CSc2cccc(OC)c2)cc1 | 53 to 54 °C
61 | CN(C)CCNC(=O)c1ccc(-c2nnc(CSCCOc3ccccc3)o2)cc1 | 94 to 100 °C
62 | CONC(=O)Nc1ccc(-c2sc3c(c2CN(C)C(C)c2ccccc2)c(=O)n(-c2ccccc2)c(=O)n3Cc2c(F)cccc2F)cc1 (configuration not stated) | 191 to 192 °C
63 | COc1ccc(O)c(C2(CCCCSC)Sc3ccccc3N(C)C2=O)c1 (configuration not stated) | 148 to 150 °C
64 | C[C@@H](N[C@@H](CC(=O)O)Cc1cc(F)c(F)cc1F)c1ccccc1 | 144 °C
65 | CC(=O)C(C)(C)C(Cl)C=Cc1ccccc1 (configuration not stated) | 71 °C
66 | Cc1noc(NS(=O)(=O)c2ccccc2-c2ccc(-c3ncco3)cc2CN2CCN(c3ccccc3)C2=O)c1C | 140 to 150 °C
67 | CC(C)Oc1ccc(C=C(C=O)C(C=O)=Cc2ccc(OC(C)C)cc2)cc1 | 200 to 202 °C
68 | Cc1c(NC(=O)c2ccc(CC(=O)C(C)C)cc2)ccc2cc(CN3CCCC3)cnc12 | 146 to 147 °C
69 | CC(C)c1cccc(C(C)C)c1NS(=O)(=O)CC(=O)O | 153 to 155 °C
70 | CCCc1c(C(=O)C(C)C)c2ccc(C(=O)NO)cc2n1Cc1ccccc1Cl | 185 to 186 °C
71 | CCCCCCN(C(=O)C(C)C)c1sc(CC)cc1C(=O)O | 98 to 101 °C
72 | O=C(Cc1ccccc1C(=O)O)Nc1cccc(/C=C/c2nc(C3CCCCCC3)cs2)c1 | 189 to 190 °C
73 | CCCCCCCCCCCCCCCCNc1ccc(C(=O)NCC(=O)OCC)cc1 | 97.5 to 99.5 °C
74 | Cc1oc(-c2ccccc2)nc1COc1ccc(C(C)CCCC#N)cc1 (configuration not stated) | 76 to 77 °C
75 | CN(C)C(=O)c1ccc(-c2ccc(Cl)cc2)o1 | 101 to 102 °C
76 | C=CCC(C(=O)NC)c1ccccc1 (configuration not stated) | 97 to 99 °C
77 | Cc1nc(-n2ccc(OCc3ccccc3)cc2=O)[nH]c1C(=O)NCc1ccccc1 | 183 to 184 °C
78 | O=C1c2ccccc2C(O)(c2ccccc2)N1CC(c1ccccc1)c1ccccc1 (configuration not stated) | 230 °C
79 | CC(=O)SCC(C(=O)N[C@@H](Cc1c[nH]c2ccccc12)C(=O)O)C(F)(F)F (some centres not stated) | 140 to 143 °C

Row | SMILES | melting point
80 | CC(C)(C)c1cc(NC(=O)Nc2ccc(Oc3ccncc3)cc2)[nH]n1 | 178 to 179 °C
81 | CC(NC(Nc1cc(Cl)cc(Cl)c1)=C(C#N)S(=O)(=O)c1ccc(Cl)cc1)C(C)(C)C (configuration not stated) | 163 to 169 °C
82 | CNC(=O)COc1cc(-n2c(=O)cc(C(F)(F)F)n(C)c2=O)c(F)cc1Cl | 190 to 192 °C
83 | C[C@@H](n1cnc2cc(-c3ccc(C#N)cc3)sc2c1=O)[C@](O)(Cn1cncn1)c1ccc(Cl)cc1Cl | 133 to 138 °C
84 | O=C(Nc1ccc(-c2ncon2)cc1)Oc1ccccc1 | 157 to 158 °C
85 | CC(=O)OC1CCC2(C)C(=CCC3C2CCC2(C)C(n4ncnn4)=CCC32)C1 (configuration not stated) | 155 to 156 °C
86 | CCN(CC)c1ccc(C(=O)C#Cc2ccncc2)cc1 | 85 to 87 °C
87 | COc1ccc(-c2ccc(-c3ccc(C(=O)O)cc3)cc2-c2ccc3c(c2)C(C)(C)CCC3(C)C)cc1 | 112 to 115 °C
88 | CCOC(=O)c1nnc(CNC(=O)c2cc3ccccc3[nH]2)n1-c1sc(CC)cc1C(=O)c1ccccc1Cl | 233 to 235 °C
89 | CCOP(=O)(Cc1ccc(C(=O)O)cc1)OCC | 117 to 120 °C
90 | O=C(Nc1ccc(N2C[C@H]3CN(C(=O)OCc4ccccc4)C[C@H]3C2)cc1)OCc1ccccc1 | 145 to 146 °C
91 | COc1cc(C(C)C)ccc1C1(NC(=O)C2CC2)C(=O)c2ccccc2C1=O | 145 to 147 °C
92 | [N-]=[N+]=NCC(O)COc1ccc(-c2ccccc2)cc1 (configuration not stated) | 72.2 to 73.9 °C
93 | O=c1c2cc(F)c(N3CCCC3)nc2n(C2CC2)c(=O)n1OCc1ccccc1 | 184 to 186 °C
94 | Cc1cccc(C)c1CNc1cc(C(=O)N(C)C)cc2c1nc(CO)n2C | 171 to 172 °C
95 | C#CCN(C(=O)OC)C1CN(C(=O)Nc2ccc(OC(F)(F)F)cc2)N=C1c1ccc(Cl)cc1 (configuration not stated) | 184 to 185 °C
96 | COC(=O)c1ccc(-c2ccc3cc(C(=O)OCc4ccccc4)c(C45CC6CC(CC(C6)C4)C5)cc3c2)cc1 | 143 to 144 °C
97 | CCCNc1nc(N)nc(C)c1/C=C/C(C)(C)c1ccc(C(F)(F)F)cc1 | 140 to 141 °C
98 | CN(C)C=Nc1ccc(-n2ncnc2-c2ccc(F)cc2)cc1 | 90 to 93 °C
99 | CS(=O)(=O)OC[C@@H]1Cc2cc3ccccc3n2C[C@H]1COS(C)(=O)=O (relative stereo) | 139 to 141 °C
100 | CC(C)OC(=O)c1ccc(=O)n(CCNC(=O)c2cccnc2)c1 | 160 to 161 °C
101 | CCOC(=O)C(=CNc1cccc(OCC)n1)C(=O)OCC | 58 to 60 °C
102 | O=C(O)CCCOc1cccc(CCCCCCOc2ccc3c(c2C/C=C/c2ccccc2)CCCC3=O)c1CCC(=O)O | 102 to 104 °C
